{"source": "patent US7994140B2", "about": "“Classes of compounds that interact with GPCRs” (Alchemia Limited, priority 2002, dated 2011)"}
{"molecular_target": "T1, MC4 (Homo sapiens, UniProt P32245)", "T1 construct": "purchased Perkin Elmer BioSignal; host or cells: HEK 293", "T1 sequence (P32245 whole entry)": "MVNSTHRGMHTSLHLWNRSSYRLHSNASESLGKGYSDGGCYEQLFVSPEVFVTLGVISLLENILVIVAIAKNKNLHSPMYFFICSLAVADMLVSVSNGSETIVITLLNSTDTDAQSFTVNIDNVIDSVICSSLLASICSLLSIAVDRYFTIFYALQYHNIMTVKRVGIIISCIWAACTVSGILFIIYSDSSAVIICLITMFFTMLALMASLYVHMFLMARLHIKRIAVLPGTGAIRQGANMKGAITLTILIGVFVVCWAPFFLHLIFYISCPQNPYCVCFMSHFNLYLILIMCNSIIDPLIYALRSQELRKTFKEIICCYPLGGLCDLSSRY", "assay": "GPCR radioligand binding (RLB) assay, melanocortin MC4, [125I]NDP-αMSH", "conditions": "4.0 Micromolar; Example Library 12", "summary_of_the_method": "(§1)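 Membranes from HEK 293 cells expressing the recombinant human receptor were equilibrated with [125I]SST-14 (SST5) or [125I]NDP-αMSH (MC4), then compound added for an optimized incubation. Bound ligand separated by filtration on PEI-coated glass fiber and counted by liquid scintillation.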"}
{"smiles": "N=C(N)NCC(=O)N[C@H]1C(OCc2ccccc2)O[C@H](COCc2ccc3ccccc3c2)[C@@H](O)[C@@H]1OCc1ccc(Cl)cc1", "note": "(stereo partly drawn) [Compound 431]", "MC4 Inhibition at 4.0 Micromolar": "+ (Indicates inhibition greater than . . . 50%)"}
{"smiles": "N=C(N)NCC(=O)N[C@H]1C(OCc2ccccc2)O[C@H](COCc2ccc3ccccc3c2)[C@@H](O)[C@@H]1OCc1ccc(Cl)cc1", "note": "(stereo partly drawn) [Compound 432]", "MC4 Inhibition at 4.0 Micromolar": "+ (Indicates inhibition greater than . . . 50%)"}
{"smiles": "N=C(N)NCC(=O)N[C@H]1C(OCc2ccccc2)O[C@H](COCc2ccccc2)[C@@H](O)[C@@H]1OCc1ccc(Cl)cc1", "note": "(stereo partly drawn) [Compound 433]", "MC4 Inhibition at 4.0 Micromolar": "+ (Indicates inhibition greater than . . . 50%)"}
{"smiles": "N=C(N)NCC(=O)N[C@H]1C(OCc2ccccc2)O[C@H](COCc2ccccc2)[C@@H](O)[C@@H]1OCc1ccc(Cl)cc1", "note": "(stereo partly drawn) [Compound 434]", "MC4 Inhibition at 4.0 Micromolar": "+ (Indicates inhibition greater than . . . 50%)"}
{"smiles": "N=C(N)NCC(=O)N[C@H]1C(OCc2ccccc2)O[C@H](COCc2ccc(Cl)cc2)[C@@H](O)[C@@H]1OCc1ccc(Cl)cc1", "note": "(stereo partly drawn) [Compound 435]", "MC4 Inhibition at 4.0 Micromolar": "+ (Indicates inhibition greater than . . . 50%)"}
{"smiles": "N=C(N)NCC(=O)N[C@H]1C(OCc2ccccc2)O[C@H](COCc2ccc3ccccc3c2)[C@@H](O)[C@@H]1OCc1ccc2ccccc2c1", "note": "(stereo partly drawn) [Compound 436]", "MC4 Inhibition at 4.0 Micromolar": "+ (Indicates inhibition greater than . . . 50%)"}
{"smiles": "N=C(N)NCC(=O)N[C@H]1C(OCc2ccccc2)O[C@H](COCc2ccc3ccccc3c2)[C@@H](O)[C@@H]1OCc1ccc2ccccc2c1", "note": "(stereo partly drawn) [Compound 437]", "MC4 Inhibition at 4.0 Micromolar": "+ (Indicates inhibition greater than . . . 50%)"}
{"smiles": "N=C(N)NCC(=O)N[C@H]1C(OCc2ccccc2)O[C@H](COCc2ccccc2)[C@@H](O)[C@@H]1OCc1ccc2ccccc2c1", "note": "(stereo partly drawn) [Compound 438]", "MC4 Inhibition at 4.0 Micromolar": "+ (Indicates inhibition greater than . . . 50%)"}
{"smiles": "N=C(N)NCC(=O)N[C@H]1C(OCc2ccccc2)O[C@H](COCc2ccc(Cl)cc2)[C@@H](O)[C@@H]1OCc1ccc2ccccc2c1", "note": "(stereo partly drawn) [Compound 439]", "MC4 Inhibition at 4.0 Micromolar": "+ (Indicates inhibition greater than . . . 50%)"}
{"smiles": "N=C(N)NCC(=O)N[C@H]1C(OCc2ccccc2)O[C@H](COCc2ccc(Cl)cc2)[C@@H](O)[C@@H]1OCc1ccc2ccccc2c1", "note": "(stereo partly drawn) [Compound 440]", "MC4 Inhibition at 4.0 Micromolar": "+ (Indicates inhibition greater than . . . 50%)"}
{"smiles": "N=C(N)NCC(=O)N[C@H]1C(OCc2ccccc2)O[C@H](COCc2ccc3ccccc3c2)[C@@H](O)[C@@H]1OCc1ccc(-c2ccccc2)cc1", "note": "(stereo partly drawn) [Compound 441]", "MC4 Inhibition at 4.0 Micromolar": "+ (Indicates inhibition greater than . . . 50%)"}
{"smiles": "N=C(N)NCC(=O)N[C@H]1C(OCc2ccccc2)O[C@H](COCc2ccccc2)[C@@H](O)[C@@H]1OCc1ccc(-c2ccccc2)cc1", "note": "(stereo partly drawn) [Compound 442]", "MC4 Inhibition at 4.0 Micromolar": "+ (Indicates inhibition greater than . . . 50%)"}
{"smiles": "N=C(N)NCC(=O)N[C@H]1C(OCc2ccccc2)O[C@H](COCc2ccccc2)[C@@H](O)[C@@H]1OCc1ccc(-c2ccccc2)cc1", "note": "(stereo partly drawn) [Compound 443]", "MC4 Inhibition at 4.0 Micromolar": "+ (Indicates inhibition greater than . . . 50%)"}
{"smiles": "N=C(N)NCC(=O)N[C@H]1C(OCc2ccccc2)O[C@H](COCc2ccc(Cl)cc2)[C@@H](O)[C@@H]1OCc1ccc(-c2ccccc2)cc1", "note": "(stereo partly drawn) [Compound 444]", "MC4 Inhibition at 4.0 Micromolar": "+ (Indicates inhibition greater than . . . 50%)"}
{"smiles": "N=C(N)NCC(=O)N[C@H]1C(OCc2ccccc2)O[C@H](COCc2ccc(Cl)cc2)[C@@H](O)[C@@H]1OCc1ccc(-c2ccccc2)cc1", "note": "(stereo partly drawn) [Compound 445]", "MC4 Inhibition at 4.0 Micromolar": "+ (Indicates inhibition greater than . . . 50%)"}
{"smiles": "N=C(N)NCCC(=O)N[C@H]1C(OCc2ccccc2)O[C@H](COCc2ccc3ccccc3c2)[C@@H](O)[C@@H]1OCc1ccc(Cl)cc1", "note": "(stereo partly drawn) [Compound 446]", "MC4 Inhibition at 4.0 Micromolar": "+ (Indicates inhibition greater than . . . 50%)"}
{"smiles": "N=C(N)NCCC(=O)N[C@H]1C(OCc2ccccc2)O[C@H](COCc2ccc3ccccc3c2)[C@@H](O)[C@@H]1OCc1ccc(Cl)cc1", "note": "(stereo partly drawn) [Compound 447]", "MC4 Inhibition at 4.0 Micromolar": "+ (Indicates inhibition greater than . . . 50%)"}
{"smiles": "N=C(N)NCCC(=O)N[C@H]1C(OCc2ccccc2)O[C@H](COCc2ccccc2)[C@@H](O)[C@@H]1OCc1ccc(Cl)cc1", "note": "(stereo partly drawn) [Compound 448]", "MC4 Inhibition at 4.0 Micromolar": "+ (Indicates inhibition greater than . . . 50%)"}
{"smiles": "N=C(N)NCCC(=O)N[C@H]1C(OCc2ccccc2)O[C@H](COCc2ccccc2)[C@@H](O)[C@@H]1OCc1ccc(Cl)cc1", "note": "(stereo partly drawn) [Compound 449]", "MC4 Inhibition at 4.0 Micromolar": "+ (Indicates inhibition greater than . . . 50%)"}
{"smiles": "N=C(N)NCCC(=O)N[C@H]1C(OCc2ccccc2)O[C@H](COCc2ccc(Cl)cc2)[C@@H](O)[C@@H]1OCc1ccc(Cl)cc1", "note": "(stereo partly drawn) [Compound 450]", "MC4 Inhibition at 4.0 Micromolar": "+ (Indicates inhibition greater than . . . 50%)"}
{"smiles": "N=C(N)NCCC(=O)N[C@H]1C(OCc2ccccc2)O[C@H](COCc2ccc(Cl)cc2)[C@@H](O)[C@@H]1OCc1ccc(Cl)cc1", "note": "(stereo partly drawn) [Compound 451]", "MC4 Inhibition at 4.0 Micromolar": "+ (Indicates inhibition greater than . . . 50%)"}
{"smiles": "N=C(N)NCCC(=O)N[C@H]1C(OCc2ccccc2)O[C@H](COCc2ccc3ccccc3c2)[C@@H](O)[C@@H]1OCc1ccc2ccccc2c1", "note": "(stereo partly drawn) [Compound 452]", "MC4 Inhibition at 4.0 Micromolar": "+ (Indicates inhibition greater than . . . 50%)"}
{"smiles": "N=C(N)NCCC(=O)N[C@H]1C(OCc2ccccc2)O[C@H](COCc2ccccc2)[C@@H](O)[C@@H]1OCc1ccc2ccccc2c1", "note": "(stereo partly drawn) [Compound 453]", "MC4 Inhibition at 4.0 Micromolar": "+ (Indicates inhibition greater than . . . 50%)"}
{"smiles": "N=C(N)NCCC(=O)N[C@H]1C(OCc2ccccc2)O[C@H](COCc2ccccc2)[C@@H](O)[C@@H]1OCc1ccc2ccccc2c1", "note": "(stereo partly drawn) [Compound 454]", "MC4 Inhibition at 4.0 Micromolar": "+ (Indicates inhibition greater than . . . 50%)"}
{"smiles": "N=C(N)NCCC(=O)N[C@H]1C(OCc2ccccc2)O[C@H](COCc2ccc(Cl)cc2)[C@@H](O)[C@@H]1OCc1ccc2ccccc2c1", "note": "(stereo partly drawn) [Compound 455]", "MC4 Inhibition at 4.0 Micromolar": "+ (Indicates inhibition greater than . . . 50%)"}
{"smiles": "N=C(N)NCCC(=O)N[C@H]1C(OCc2ccccc2)O[C@H](COCc2ccc(Cl)cc2)[C@@H](O)[C@@H]1OCc1ccc2ccccc2c1", "note": "(stereo partly drawn) [Compound 456]", "MC4 Inhibition at 4.0 Micromolar": "+ (Indicates inhibition greater than . . . 50%)"}
{"smiles": "N=C(N)NCCC(=O)N[C@H]1C(OCc2ccccc2)O[C@H](COCc2ccc3ccccc3c2)[C@@H](O)[C@@H]1OCc1ccc(-c2ccccc2)cc1", "note": "(stereo partly drawn) [Compound 457]", "MC4 Inhibition at 4.0 Micromolar": "+ (Indicates inhibition greater than . . . 50%)"}
{"smiles": "N=C(N)NCCC(=O)N[C@H]1C(OCc2ccccc2)O[C@H](COCc2ccc3ccccc3c2)[C@@H](O)[C@@H]1OCc1ccc(-c2ccccc2)cc1", "note": "(stereo partly drawn) [Compound 458]", "MC4 Inhibition at 4.0 Micromolar": "+ (Indicates inhibition greater than . . . 50%)"}
{"smiles": "N=C(N)NCCC(=O)N[C@H]1C(OCc2ccccc2)O[C@H](COCc2ccccc2)[C@@H](O)[C@@H]1OCc1ccc(-c2ccccc2)cc1", "note": "(stereo partly drawn) [Compound 459]", "MC4 Inhibition at 4.0 Micromolar": "+ (Indicates inhibition greater than . . . 50%)"}
{"smiles": "N=C(N)NCCC(=O)N[C@H]1C(OCc2ccccc2)O[C@H](COCc2ccc(Cl)cc2)[C@@H](O)[C@@H]1OCc1ccc(-c2ccccc2)cc1", "note": "(stereo partly drawn) [Compound 460]", "MC4 Inhibition at 4.0 Micromolar": "+ (Indicates inhibition greater than . . . 50%)"}
{"smiles": "N=C(N)NCCC(=O)N[C@H]1C(OCc2ccccc2)O[C@H](COCc2ccc(Cl)cc2)[C@@H](O)[C@@H]1OCc1ccc(-c2ccccc2)cc1", "note": "(stereo partly drawn) [Compound 461]", "MC4 Inhibition at 4.0 Micromolar": "+ (Indicates inhibition greater than . . . 50%)"}
{"smiles": "N=C(N)NCCC(=O)N[C@H]1C(OCc2ccccc2)O[C@H](COCCc2ccccc2)[C@@H](O)[C@@H]1OCc1ccc(-c2ccccc2)cc1", "note": "(stereo partly drawn) [Compound 462]", "MC4 Inhibition at 4.0 Micromolar": "+ (Indicates inhibition greater than . . . 50%)"}
{"molecular_target": "T1, MC4", "assay": "GPCR radioligand binding (RLB) assay, melanocortin MC4, [125I]NDP-αMSH", "conditions": "4.0 Micromolar; Example Library 13", "summary_of_the_method": "as §1"}
{"smiles": "N=C(N)NCC(=O)N[C@H]1C(OCc2ccc(-c3ccccc3)cc2)O[C@H](COCc2ccc3ccccc3c2)[C@@H](O)[C@H]1OCc1ccc(Cl)cc1", "note": "(stereo partly drawn) [Compound 463]", "MC4 Inhibition at 4.0 Micromolar": "+ (Indicates inhibition greater than . . . 50%)"}
{"smiles": "N=C(N)NCC(=O)N[C@H]1C(OCc2ccc(-c3ccccc3)cc2)O[C@H](COCc2ccccc2)[C@@H](O)[C@H]1OCc1ccc(Cl)cc1", "note": "(stereo partly drawn) [Compound 464]", "MC4 Inhibition at 4.0 Micromolar": "+ (Indicates inhibition greater than . . . 50%)"}
{"smiles": "N=C(N)NCC(=O)N[C@H]1C(OCc2ccc(-c3ccccc3)cc2)O[C@H](COCc2ccc(Cl)cc2)[C@@H](O)[C@H]1OCc1ccc(Cl)cc1", "note": "(stereo partly drawn) [Compound 465]", "MC4 Inhibition at 4.0 Micromolar": "+ (Indicates inhibition greater than . . . 50%)"}
{"smiles": "N=C(N)NCC(=O)N[C@H]1C(OCc2ccc(-c3ccccc3)cc2)O[C@H](COCc2ccccc2)[C@@H](O)[C@H]1OCc1ccc2ccccc2c1", "note": "(stereo partly drawn) [Compound 466]", "MC4 Inhibition at 4.0 Micromolar": "+ (Indicates inhibition greater than . . . 50%)"}
{"smiles": "N=C(N)NCC(=O)N[C@H]1C(OCc2ccc(-c3ccccc3)cc2)O[C@H](COCc2ccc(Cl)cc2)[C@@H](O)[C@H]1OCc1ccc2ccccc2c1", "note": "(stereo partly drawn) [Compound 467]", "MC4 Inhibition at 4.0 Micromolar": "+ (Indicates inhibition greater than . . . 50%)"}
{"smiles": "N=C(N)NCC(=O)N[C@H]1C(OCc2ccc(-c3ccccc3)cc2)O[C@H](COCc2ccccc2)[C@@H](O)[C@H]1OCc1ccc(-c2ccccc2)cc1", "note": "(stereo partly drawn) [Compound 468]", "MC4 Inhibition at 4.0 Micromolar": "+ (Indicates inhibition greater than . . . 50%)"}
{"smiles": "N=C(N)NCC(=O)N[C@H]1C(OCc2ccc(-c3ccccc3)cc2)O[C@H](COCc2ccc(Cl)cc2)[C@@H](O)[C@H]1OCc1ccc(-c2ccccc2)cc1", "note": "(stereo partly drawn) [Compound 469]", "MC4 Inhibition at 4.0 Micromolar": "+ (Indicates inhibition greater than . . . 50%)"}
{"smiles": "N=C(N)NCCC(=O)N[C@H]1C(OCc2ccc(-c3ccccc3)cc2)O[C@H](COCc2ccc3ccccc3c2)[C@@H](O)[C@H]1OCc1ccc(Cl)cc1", "note": "(stereo partly drawn) [Compound 470]", "MC4 Inhibition at 4.0 Micromolar": "+ (Indicates inhibition greater than . . . 50%)"}
{"smiles": "N=C(N)NCCC(=O)N[C@H]1C(OCc2ccc(-c3ccccc3)cc2)O[C@H](COCc2ccccc2)[C@@H](O)[C@H]1OCc1ccc(Cl)cc1", "note": "(stereo partly drawn) [Compound 471]", "MC4 Inhibition at 4.0 Micromolar": "+ (Indicates inhibition greater than . . . 50%)"}
{"smiles": "N=C(N)NCCC(=O)N[C@H]1C(OCc2ccc(-c3ccccc3)cc2)O[C@H](COCc2ccc(Cl)cc2)[C@@H](O)[C@H]1OCc1ccc(Cl)cc1", "note": "(stereo partly drawn) [Compound 472]", "MC4 Inhibition at 4.0 Micromolar": "+ (Indicates inhibition greater than . . . 50%)"}
